PMC11747885, “Potent inhibitors of the human RNA ligase Rlig1 highlights its role in RNA integrity maintenance under oxidative cellular stress” (Chemical Science, 2025)
Where “and” joins values, the source holds several entries; their conditions need not be identical. Equal values may be shown once. Read-outs that look alike come from different tables or passages of the source.

Legend:
Rlig1-AMP = target: T1, Rlig1-AMP (Homo sapiens, UniProt Q8N999); experiment: FRET-based high-throughput screening of inhibitors for Rlig1-AMP; assay type: biochemical; settings: HTS hits; for 1-D Distance.npi: MedChemExpress library; for Raw data [w Enyzm]: with enzyme; for Raw data [w/o Enzym]: without enzyme
T1 construct: made in house; host or cells: E. coli BL21 (DE3), pET15b-Rlig1

[1] = tested on: other members of the PLK family; set-up: method as in MedChemExpress; settings: ref MedChemExpress; cited from earlier work
Aurora A = tested on: Aurora A; set-up: method as in MedChemExpress; settings: ref MedChemExpress; cited from earlier work
Aurora B = tested on: Aurora B; set-up: method as in MedChemExpress; settings: ref MedChemExpress; cited from earlier work
KDR = tested on: KDR; set-up: method as in MedChemExpress; settings: ref MedChemExpress; cited from earlier work
FLT-3 = tested on: FLT-3; set-up: method as in MedChemExpress; settings: ref MedChemExpress; cited from earlier work
ETB receptor = target: ETB receptor; set-up: method as in MedChemExpress; settings: inhibition of ET-1 binding to human Girardi heart cells (ETB); ref MedChemExpress; cited from earlier work
ETA receptors = target: ETA receptors; set-up: method as in MedChemExpress; settings: binding to ETA receptors in SK-N-MC cells; ref MedChemExpress; cited from earlier work
rat brain PKC = tested on: rat brain PKC; set-up: method as in MedChemExpress; settings: ref MedChemExpress; cited from earlier work
PKC-α = tested on: PKC-α; set-up: method as in MedChemExpress; settings: ref MedChemExpress; cited from earlier work
PKC-βI = tested on: PKC-βI; set-up: method as in MedChemExpress; settings: ref MedChemExpress; cited from earlier work
PKC-βII = tested on: PKC-βII; set-up: method as in MedChemExpress; settings: ref MedChemExpress; cited from earlier work
PKC-γ = tested on: PKC-γ; set-up: method as in MedChemExpress; settings: ref MedChemExpress; cited from earlier work
PKC-ε = tested on: PKC-ε; set-up: method as in MedChemExpress; settings: ref MedChemExpress; cited from earlier work
[2] = target: human DNA topoisomerase I; set-up: method as in MedChemExpress; settings: ref MedChemExpress; cited from earlier work
wild-type h5-HT1B = target: wild-type h5-HT1B; set-up: method as in MedChemExpress; settings: ref MedChemExpress; cited from earlier work
wild-type h5-HT1D = target: wild-type h5-HT1D; set-up: method as in MedChemExpress; settings: ref MedChemExpress; cited from earlier work
[3] = DMSO; ref MedChemExpress; cited from earlier work
MAGL = tested on: MAGL; set-up: method as in MedChemExpress; settings: ref MedChemExpress; cited from earlier work
CDK7 = target: CDK7; set-up: method as in MedChemExpress; settings: ref MedChemExpress; cited from earlier work
T-type Ca2+ channels = tested on: T-type Ca2+ channels; set-up: method as in MedChemExpress; settings: T-type currents; ref MedChemExpress; cited from earlier work
L-type currents = tested on: L-type currents; set-up: method as in MedChemExpress; settings: ref MedChemExpress; cited from earlier work
DNA synthesis = tested on: DNA synthesis; set-up: method as in MedChemExpress; settings: ref MedChemExpress; cited from earlier work
RNA synthesis = tested on: RNA synthesis; set-up: method as in MedChemExpress; settings: ref MedChemExpress; cited from earlier work
[4] = DMSO; ref MedChemExpress; cited from earlier work; remark: listed apart in the source
Syk = tested on: Syk; set-up: method as in MedChemExpress; settings: ref MedChemExpress; cited from earlier work
PI3Kα = tested on: PI3Kα; set-up: method as in MedChemExpress; settings: ref MedChemExpress; cited from earlier work
HIV-1IIIB = tested on: HIV-1IIIB; set-up: method as in MedChemExpress; settings: ref MedChemExpress; cited from earlier work
HIV-1(74V) = tested on: HIV-1(74V); set-up: method as in MedChemExpress; settings: ref MedChemExpress; cited from earlier work
HIV-1KM018 = tested on: HIV-1KM018; set-up: method as in MedChemExpress; settings: ref MedChemExpress; cited from earlier work
SirT2 = tested on: SirT2; set-up: method as in MedChemExpress; settings: ref MedChemExpress; cited from earlier work
SirT5 = tested on: SirT5; set-up: method as in MedChemExpress; settings: ref MedChemExpress; cited from earlier work
DNA topoisomerase II = target: DNA topoisomerase II; set-up: method as in MedChemExpress; settings: ref MedChemExpress; cited from earlier work
VEGFR1 = tested on: VEGFR1; set-up: method as in MedChemExpress; settings: ref MedChemExpress; cited from earlier work
VEGFR2 = tested on: VEGFR2; set-up: method as in MedChemExpress; settings: ref MedChemExpress; cited from earlier work
FGFR1 = tested on: FGFR1; set-up: method as in MedChemExpress; settings: ref MedChemExpress; cited from earlier work
FGFR2 = tested on: FGFR2; set-up: method as in MedChemExpress; settings: ref MedChemExpress; cited from earlier work
PDGFRβ = tested on: PDGFRβ; set-up: method as in MedChemExpress; settings: ref MedChemExpress; cited from earlier work
Fgr = tested on: Fgr; set-up: method as in MedChemExpress; settings: ref MedChemExpress; cited from earlier work
Fyn = tested on: Fyn; set-up: method as in MedChemExpress; settings: ref MedChemExpress; cited from earlier work
Hck = tested on: Hck; set-up: method as in MedChemExpress; settings: ref MedChemExpress; cited from earlier work
Lck = tested on: Lck; set-up: method as in MedChemExpress; settings: ref MedChemExpress; cited from earlier work
Lyn = tested on: Lyn; set-up: method as in MedChemExpress; settings: ref MedChemExpress; cited from earlier work
Src = tested on: Src; set-up: method as in MedChemExpress; settings: ref MedChemExpress; cited from earlier work
Yes = tested on: Yes; set-up: method as in MedChemExpress; settings: ref MedChemExpress; cited from earlier work
[5] = difference of raw data without and with enzyme

T1 sequence (Q8N999 whole entry): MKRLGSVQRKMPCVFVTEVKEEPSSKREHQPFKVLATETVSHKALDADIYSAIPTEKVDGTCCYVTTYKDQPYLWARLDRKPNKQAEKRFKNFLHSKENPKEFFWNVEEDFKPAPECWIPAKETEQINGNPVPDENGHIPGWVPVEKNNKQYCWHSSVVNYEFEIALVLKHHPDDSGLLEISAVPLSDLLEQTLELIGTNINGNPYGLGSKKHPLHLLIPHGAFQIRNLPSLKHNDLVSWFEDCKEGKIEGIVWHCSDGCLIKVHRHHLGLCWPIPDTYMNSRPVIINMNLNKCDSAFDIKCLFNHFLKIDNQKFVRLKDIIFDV

SMILES | 1-D Distance.npi (Rlig1-AMP) | 1-D Distance (Rlig1-AMP; [5]) | Raw data [w Enyzm] (Rlig1-AMP) | Raw data [w/o Enzym] (Rlig1-AMP) | solubility [4] | further results
COc1ccc2[nH]c(O)c(C=c3ccc4c(c3)N=NC=4/C=C/c3ccc(N4CCN(C)CC4)nc3)c2c1.Cl.Cl [(1E)-CFI-400437 (dihydrochloride)] | 102.026 | 187 | 4069 | 3882 |  | IC50 [1]: > 10 µM; IC50 (Aurora A): 0.37 µM; IC50 (Aurora B): 0.21 µM; IC50 (KDR): 0.48 µM; IC50 (FLT-3): 0.18 µM
CCCC[C@@H](NC(=O)[C@@H](Cc1cn(C(=O)OC)c2ccccc12)NC(=O)[C@H](CC(C)(C)C)NC(=O)N1[C@H](C)CCC[C@@H]1C)C(=O)[O-].[Na+] [BQ-788] | 75.2571 | 1704 | 8619 | 10323 |  | IC50 (ETB receptor): 0.0012 µM; IC50 (ETA receptors): 1.3 µM
CC(=O)O.Cn1cc(C2=C(c3cn(CCCN)c4ccccc34)C(=O)NC2=O)c2ccccc21 [Bisindolylmaleimide VIII (acetate)] | 70.0569 | 1909 | 2831 | 4740 |  | IC50 (rat brain PKC): 0.158 µM; IC50 (PKC-α): 0.053 µM; IC50 (PKC-βI): 0.195 µM; IC50 (PKC-βII): 0.163 µM; IC50 (PKC-γ): 0.213 µM; IC50 (PKC-ε): 0.175 µM
COc1cccc2c1C(=O)c1c(O)c3c(c(O)c1C2=O)C[C@@](O)(C(=O)CO)C[C@@H]3O[C@H]1C[C@H](N)[C@H](O)[C@H](C)O1.Cl [Doxorubicin (hydrochloride)] | 103.376 | 134 | 1247 |  |  | IC50 [2]: 0.8 µM
COc1ccc(NC(=O)c2ccc(-c3ccncc3)c(C)c2)cc1N1CCN(C)CC1 [GR 125743] |  |  | 8833 | 10262 |  | 1-D Distance (Rlig1-AMP; difference of raw data w/o and w enzyme): 1429; pKi (wild-type h5-HT1B): 8.85; pKi (wild-type h5-HT1D): 8.31; solubility [3]: 100 mg/mL and 240.08 mM
CC(C)c1ccc(C(=O)C2CCN(C(=O)c3cc(O)ccc3F)CC2)cc1 [MAGL-IN-1] | 70.8371 | 1819 | 9200 | 11019 |  | IC50 (MAGL): 0.08 µM
CN(C)C/C=C/C(=O)Nc1ccc(C(=O)N[C@@]2(C)CCC[C@@H](Nc3ncc(Cl)c(-c4c[nH]c5ccccc45)n3)C2)nc1 [Mevociclib] | 95.3899 | 561 | 5749 | 5188 |  | Ki (CDK7): 0.0174 µM
COCC(=O)O[C@]1(CCN(C)CCCc2nc3ccccc3[nH]2)CCc2cc(F)ccc2[C@@H]1C(C)C.Cl.Cl [Mibefradil (dihydrochloride)] | 70.2795 | 1786 | 9508 | 11294 |  | IC50 (T-type Ca2+ channels): 2.7 µM; IC50 (L-type currents): 18.6 µM
CCc1c2c(nc3ccc(O)cc13)-c1cc3c(c(=O)n1C2)COC(=O)[C@]3(O)CC [SN-38] | 72.669 | 1812 | 9411 | 11223 | 50 mg/mL and 127.42 mM | IC50 (DNA synthesis): 0.077 µM; IC50 (RNA synthesis): 1.3 µM
Cc1nn(-c2ccnc(Nc3ccc(-c4csc5c(=O)cc(N6CCOCC6)oc45)cc3)n2)cc1CN1CCC1 [SRX3207] | 89.3143 | 966 | 7329 | 6363 | 5 mg/mL and 9.00 mM | IC50 (Syk): 0.0107 µM; IC50 (PI3Kα): 0.861 µM
O=C(O)[C@H]1O[C@@H](Oc2cc3oc(-c4ccc(O)cc4)cc(=O)c3c(O)c2O)[C@H](O)[C@@H](O)[C@@H]1O [Scutellarin] |  | 1804 | 9318 | 11122 | 100 mg/mL and 216.28 mM | EC50 (HIV-1IIIB): 26 µM; EC50 (HIV-1(74V)): 253 µM; EC50 (HIV-1KM018): 136 µM
Cc1ccc(C(=O)Nc2ccc(S(=O)(=O)[O-])c3cc(S(=O)(=O)[O-])cc(S(=O)(=O)[O-])c23)cc1NC(=O)c1cccc(NC(=O)Nc2cccc(C(=O)Nc3cc(C(=O)Nc4ccc(S(=O)(=O)[O-])c5cc(S(=O)(=O)[O-])cc(S(=O)(=O)[O-])c45)ccc3C)c2)c1.[Na+].[Na+].[Na+].[Na+].[Na+].[Na+] [Suramin (sodium salt)] | 85.8095 | 1150 | 13348 | 14498 |  | IC50 (SirT2): 1.15 µM; IC50 (SirT5): 22 µM; IC50 (DNA topoisomerase II): 5 µM
Cc1cc(-c2cc(O)ccc2Cl)cc2nnc(Nc3ccc(OCCN4CCCC4)cc3)nc12.Cl [TG 100572 (Hydrochloride)] | 103.738 | 38 | 3376 | 3338 | 25 mg/mL and 48.79 mM | IC50 (VEGFR1): 0.002 µM; IC50 (VEGFR2): 0.007 µM; IC50 (FGFR1): 0.002 µM; IC50 (FGFR2): 0.016 µM; IC50 (PDGFRβ): 0.013 µM; IC50 (Fgr): 0.005 µM; IC50 (Fyn): 0.0005 µM; IC50 (Hck): 0.006 µM; IC50 (Lck): 0.0001 µM; IC50 (Lyn): 0.0004 µM; IC50 (Src): 0.001 µM; IC50 (Yes): 0.0002 µM
